Experimental data taken from the supplement of paper PMC13380429.

Assays:
Caco-2 [1] = assay: drug sensitivity score (DSS) for viability; higher = more toxic; extreme values may be limits of the assay; details: 72 h
HepG2 [2] = assay: as above; details: 72 h
Calu-3 [3] = assay: as above; details: 72 h
U2OS [4] = assay: as above; details: 72 h
Vero E6 [5] = assay: as above; details: 72 h
[6] = tested on: A549-ACE2 infected with SARS-CoV-2; assay: SARS-CoV-2 infection rate relative to DMSO; higher = more infection; details: 24 h
Caco-2 [7] = assay: relative viability EC50 (midpoint between 100% and the lowest measured viability); higher = less toxic; details: 72 h
U2OS [8] = assay: as above; details: 72 h
[9] = tested on: A549-ACE2 infected with SARS-CoV-2; assay: cell count relative to DMSO; higher = less toxic; details: 24 h
A549-ACE2 [10] = assay: phospholipidosis EC50; higher = less potent phospholipidosis inducer
Caco-2 [11] = assay: cell viability relative to DMSO; higher = less toxic; details: 72 h
HepG2 [12] = assay: as above; details: 72 h
Calu-3 [13] = assay: as above; details: 72 h
U2OS [14] = assay: as above; details: 72 h
Vero E6 [15] = assay: as above; details: 72 h
[16] = tested on: A549-ACE2 infected with SARS-CoV-2; assay: morphology score (similarity to uninfected cells); higher = more like uninfected cells; details: 24 h
A549-ACE2 [17] = assay: drug-induced phospholipidosis relative to tamoxifen; higher = more phospholipidosis
Calu-3 [18] = assay: relative viability EC50 (midpoint between 100% and the lowest measured viability); higher = less toxic; details: 72 h
Vero E6 [19] = assay: as above; details: 72 h

CSc1ccc2c(c1)[C@H](N1CCN(C)CC1)Cc1ccccc1S2 (racemic) [metitepine]
Details	drug sensitivity score	relative viability EC50 [µM]
Caco-2 [1]	2.6	–
Caco-2 [7]	–	3.35
Calu-3 [3]	0.8	–
HepG2 [2]	1.8	–
U2OS [4]	0	–
U2OS [8]	–	> 10
Vero E6 [5]	1.1	–

Details	SARS-CoV-2 infection rate [%]	cell count [%]	cell viability [%]	morphology score	phospholipidosis EC50 [µM]
A549-ACE2 [10], 24 h	–	–	–	–	3.04
A549-ACE2 [10], 48 h	–	–	–	–	5.86
A549-ACE2 [10], 72 h	–	–	–	–	9.23
Caco-2 [11], 1 nM	–	–	108	–	–
Caco-2 [11], 10 nM	–	–	92.9	–	–
Caco-2 [11], 100 nM	–	–	99.2	–	–
Caco-2 [11], 1000 nM	–	–	102	–	–
Caco-2 [11], 10000 nM	–	–	48.5	–	–
Calu-3 [13], 1 nM	–	–	98.4	–	–
Calu-3 [13], 10 nM	–	–	101	–	–
Calu-3 [13], 100 nM	–	–	98.2	–	–
Calu-3 [13], 1000 nM	–	–	104	–	–
Calu-3 [13], 10000 nM	–	–	73.2	–	–
HepG2 [12], 1 nM	–	–	101	–	–
HepG2 [12], 10 nM	–	–	107	–	–
HepG2 [12], 100 nM	–	–	103	–	–
HepG2 [12], 1000 nM	–	–	99	–	–
HepG2 [12], 10000 nM	–	–	64.3	–	–
U2OS [14], 1 nM	–	–	98.9	–	–
U2OS [14], 10 nM	–	–	97.6	–	–
U2OS [14], 100 nM	–	–	97.1	–	–
U2OS [14], 1000 nM	–	–	97.2	–	–
U2OS [14], 10000 nM	–	–	93.2	–	–
Vero E6 [15], 1 nM	–	–	106	–	–
Vero E6 [15], 10 nM	–	–	104	–	–
Vero E6 [15], 100 nM	–	–	102	–	–
Vero E6 [15], 1000 nM	–	–	101	–	–
Vero E6 [15], 10000 nM	–	–	71.6	–	–
[6], 0.1 µM	106	–	–	–	–
[6], 0.3 µM	90	–	–	–	–
[6], 1 µM	88	–	–	–	–
[6], 3 µM	47	–	–	–	–
[9], 0.1 µM	–	101	–	–	–
[9], 0.3 µM	–	104	–	–	–
[9], 1 µM	–	108	–	–	–
[9], 3 µM	–	94	–	–	–
[16], 0.1 µM	–	–	–	0.14	–
[16], 0.3 µM	–	–	–	0.39	–
[16], 1 µM	–	–	–	0.32	–
[16], 3 µM	–	–	–	0.72	–

drug-induced phospholipidosis [%], A549-ACE2 [17]
Details	0.3 µM	0.833333 µM	3.33333 µM	6.66667 µM	10 µM	30 µM
24 h	7.38	6.64	62.5	91.7	105	86.3
48 h	6.3	11.3	47.9	92.1	115	–
72 h	8.87	6.23	37.4	86.6	125	–

CN1Cc2ccccc2[C@@H]2c3cccc4[nH]cc(c34)C[C@H]21 [CY208-243]
Details	drug sensitivity score	relative viability EC50 [µM]
Caco-2 [1]	0.2	–
Caco-2 [7]	–	> 10
Calu-3 [3]	0	–
Calu-3 [18]	–	> 10
HepG2 [2]	2.1	–
U2OS [4]	0.3	–
U2OS [8]	–	> 10
Vero E6 [5]	0.4	–
Vero E6 [19]	–	> 10

Details	SARS-CoV-2 infection rate [%]	cell count [%]	cell viability [%]	morphology score	phospholipidosis EC50 [µM]
A549-ACE2 [10], 24 h	–	–	–	–	8.69
A549-ACE2 [10], 48 h	–	–	–	–	27.8
Caco-2 [11], 1 nM	–	–	99.1	–	–
Caco-2 [11], 10 nM	–	–	100	–	–
Caco-2 [11], 100 nM	–	–	94.8	–	–
Caco-2 [11], 1000 nM	–	–	110	–	–
Caco-2 [11], 10000 nM	–	–	82.8	–	–
Calu-3 [13], 1 nM	–	–	92.8	–	–
Calu-3 [13], 10 nM	–	–	99.8	–	–
Calu-3 [13], 100 nM	–	–	93.8	–	–
Calu-3 [13], 1000 nM	–	–	96.5	–	–
Calu-3 [13], 10000 nM	–	–	90.4	–	–
HepG2 [12], 1 nM	–	–	102	–	–
HepG2 [12], 10 nM	–	–	96.9	–	–
HepG2 [12], 100 nM	–	–	92.1	–	–
HepG2 [12], 1000 nM	–	–	99.5	–	–
HepG2 [12], 10000 nM	–	–	59.7	–	–
U2OS [14], 1 nM	–	–	95.7	–	–
U2OS [14], 10 nM	–	–	99.4	–	–
U2OS [14], 100 nM	–	–	97.3	–	–
U2OS [14], 1000 nM	–	–	100	–	–
U2OS [14], 10000 nM	–	–	83.3	–	–
Vero E6 [15], 1 nM	–	–	99	–	–
Vero E6 [15], 10 nM	–	–	92.7	–	–
Vero E6 [15], 100 nM	–	–	97	–	–
Vero E6 [15], 1000 nM	–	–	99.2	–	–
Vero E6 [15], 10000 nM	–	–	83.8	–	–
[6], 0.3 µM	100	–	–	–	–
[6], 3 µM	99	–	–	–	–
[6], 10 µM	87	–	–	–	–
[6], 30 µM	52	–	–	–	–
[9], 0.3 µM	–	97	–	–	–
[9], 3 µM	–	77	–	–	–
[9], 10 µM	–	82	–	–	–
[9], 30 µM	–	80	–	–	–
[16], 0.3 µM	–	–	–	-0.03	–
[16], 3 µM	–	–	–	0.26	–
[16], 10 µM	–	–	–	0.44	–
[16], 30 µM	–	–	–	0.69	–

drug-induced phospholipidosis [%], A549-ACE2 [17]
Details	0.3 µM	0.833333 µM	3.33333 µM	6.66667 µM	10 µM	30 µM
24 h	2.51	3.29	14.1	30.7	58.4	88.2
48 h	1.19	3.01	17.4	28.4	77.3	–
72 h	4.71	3.9	–	–	–	–
